Drawing on PubChem BioAssay AID330 (DTP/NCI, 2004), this text covers T/C for 22 compounds.

In this test the test system is P388 leukemia ip, CD2F1 mice, survival T/C. In words: NCI In Vivo Anticancer Drug Screen. Data for tumor model P388 Leukemia (intraperitoneal) in CD2F1 (CDF1) mice. The note with it: endpoint: median survival time, higher = longer survival. The method in brief:
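Mice carrying the transplanted tumor received test compound or vehicle. Survival was recorded in each group, and the value is the treated-group measurement divided by that of the vehicle-treated control group.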

Setting [1] is: dose: 25.0 mg/kg/injection, schedule: Q01DX009 (ip), vehicle: Klucel (hydroxypropylcellulose) (HPC).
Where [2] appears, read: dose: 50.0 mg/kg/injection, schedule: Q01DX009 (ip), vehicle: Klucel (hydroxypropylcellulose) (HPC).
Where [3] appears, read: dose: 50.0 mg/kg/injection, schedule: Q01DX009 (ip), vehicle: saline.
[4] abbreviates: dose: 100.0 mg/kg/injection, schedule: Q01DX009 (ip), vehicle: saline.
The mark [5] stands for this setting: dose: 200.0 mg/kg/injection, schedule: Q01DX009 (ip), vehicle: saline.
Where [6] appears, read: dose: 50.0 mg/kg/injection, schedule: Q01DX009 (ip), vehicle: saline with Tween-80.
The mark [7] stands for this setting: dose: 6.25 mg/kg/injection, schedule: Q01DX009 (ip), vehicle: water.
Setting [8] is: dose: 12.5 mg/kg/injection, schedule: Q01DX009 (ip), vehicle: water.
[9] abbreviates: dose: 25.0 mg/kg/injection, schedule: Q01DX009 (ip), vehicle: water.
Where [10] appears, read: dose: 50.0 mg/kg/injection, schedule: Q01DX009 (ip), vehicle: water.
Setting [11] is: dose: 100.0 mg/kg/injection, schedule: Q01DX009 (ip), vehicle: water.
Where [12] appears, read: dose: 60.0 mg/kg/injection, schedule: Q01DX005 (ip), vehicle: Klucel (hydroxypropylcellulose) (HPC).
The mark [13] stands for this setting: dose: 120.0 mg/kg/injection, schedule: Q01DX005 (ip), vehicle: Klucel (hydroxypropylcellulose) (HPC).
Where [14] appears, read: dose: 240.0 mg/kg/injection, schedule: Q01DX005 (ip), vehicle: Klucel (hydroxypropylcellulose) (HPC).

Toxic doses and inconclusive results are not listed.

In the case of `C1CCNCC1.O=C([CH-]C(=O)C(F)(F)F)c1ccc2c(c1)C(=O)c1ccccc1-2.O=C([CH-]C(=O)C(F)(F)F)c1ccc2c(c1)C(=O)c1ccccc1-2.O=C([CH-]C(=O)C(F)(F)F)c1ccc2c(c1)C(=O)c1ccccc1-2.O=C([CH-]C(=O)C(F)(F)F)c1ccc2c(c1)C(=O)c1ccccc1-2.[Eu+3]`, the T/C was 112 % of control (dose: 12.5 mg/kg/injection, schedule: Q01DX009 (ip), vehicle: Klucel (hydroxypropylcellulose) (HPC)); 111 % of control under setting [1]; 110 % of control under setting [2].
Take `CC(=O)OCC1=CCCC1=O`: under setting [1], the T/C was 111 % of control.
As for `N#C/C(=C\Nc1ccccn1)C(=O)C1CC1`, the T/C is 100 % of control (dose: 60.0 mg/kg/injection, schedule: Q01DX005 (ip), vehicle: saline with Tween-80); 92 % of control (dose: 120.0 mg/kg/injection, schedule: Q01DX005 (ip), vehicle: saline with Tween-80); 91 % of control (dose: 240.0 mg/kg/injection, schedule: Q01DX005 (ip), vehicle: saline with Tween-80).
Consider `CC(=O)Nc1ccc(S(N)(=O)=O)cc1`, for which the T/C is 96 % of control (dose: 25.0 mg/kg/injection, schedule: Q01DX009 (ip), vehicle: saline); 95 % of control under setting [3]; 96 % of control under setting [4]; 102 % of control under setting [5].
Take `COc1ccc2c(c1OC)-c1ccccc1C(=O)OC2`: the T/C is, setting by setting: (dose: 100.0 mg/kg/injection, schedule: Q04DX002 (ip), vehicle: saline with Tween-80) 109 % of control; (dose: 200.0 mg/kg/injection, schedule: Q04DX002 (ip), vehicle: saline with Tween-80) 100 % of control; (dose: 400.0 mg/kg/injection, schedule: Q04DX002 (ip), vehicle: saline with Tween-80) 91 % of control.
As for `c1c[n+](CC2CO2)ccc1-c1cc[n+](CC2CO2)cc1` (stereo not drawn), the T/C runs as follows: under setting [1], 120 % of control; (dose: 40.0 mg/kg/injection, schedule: Q01DX009 (ip), vehicle: Klucel (hydroxypropylcellulose) (HPC)) 162 % of control; under setting [2], 163 % of control; (dose: 80.0 mg/kg/injection, schedule: Q01DX009 (ip), vehicle: Klucel (hydroxypropylcellulose) (HPC)) 159 % of control; (dose: 100.0 mg/kg/injection, schedule: Q01DX009 (ip), vehicle: Klucel (hydroxypropylcellulose) (HPC)) 161 % of control.
As for `COCCCC12C=C(OC)C(=O)C=C1OC(c1cc(OC)c(OC)c(OC)c1)C2C` (stereo not drawn), the T/C (dose: 8.75 mg/kg/injection, schedule: Q01DX005 (ip), vehicle: Klucel (hydroxypropylcellulose) (HPC)) was 100 % of control; the T/C (dose: 17.5 mg/kg/injection, schedule: Q01DX005 (ip), vehicle: Klucel (hydroxypropylcellulose) (HPC)) is 106 % of control; the T/C (dose: 35.0 mg/kg/injection, schedule: Q01DX005 (ip), vehicle: Klucel (hydroxypropylcellulose) (HPC)) was 96 % of control.
In the case of `Cc1cc(Cl)nn2cc(C(=O)O)nc12`, the T/C was 104 % of control (dose: 50.0 mg/kg/injection, schedule: Q01DX001 (ip), vehicle: Klucel (hydroxypropylcellulose) (HPC)); 96 % of control (dose: 100.0 mg/kg/injection, schedule: Q01DX001 (ip), vehicle: Klucel (hydroxypropylcellulose) (HPC)); 97 % of control (dose: 200.0 mg/kg/injection, schedule: Q01DX001 (ip), vehicle: Klucel (hydroxypropylcellulose) (HPC)).
Regarding `S=C=NCCc1ccccc1`, the T/C is, setting by setting: (dose: 12.5 mg/kg/injection, schedule: Q01DX009 (ip), vehicle: saline with Tween-80) 116 % of control; (dose: 22.0 mg/kg/injection, schedule: Q01DX009 (ip), vehicle: saline with Tween-80) 115 % of control; under setting [6], 114 % of control.
In the case of `CN1C(c2ccccc2Cl)C2CCCC(C2O)C1c1ccccc1Cl` (stereo not drawn), the T/C runs as follows: (dose: 100.0 mg/kg/injection, schedule: Q04DX003 (ip), vehicle: saline) 100 % of control; (dose: 200.0 mg/kg/injection, schedule: Q04DX003 (ip), vehicle: saline) 100 % of control; (dose: 400.0 mg/kg/injection, schedule: Q04DX003 (ip), vehicle: saline) 95 % of control.
As for `COc1cc2c(cc1OC)C(N)CCC2` (stereo not drawn), the T/C under setting [7] was 104 % of control; the T/C under setting [8] is 96 % of control; the T/C under setting [9] was 99 % of control; the T/C under setting [10] is 96 % of control; the T/C under setting [11] is 101 % of control.
Take `C=C(C)C1CCC2(CO)C(O)CC3(C)C(CCC4C5(C)CCC(O)C(C)(C)C5CCC43C)C12` (stereo not drawn): the T/C (dose: 15.0 mg/kg/injection, schedule: Q01DX009 (ip), vehicle: Klucel (hydroxypropylcellulose) (HPC)) was 93 % of control; the T/C (dose: 30.0 mg/kg/injection, schedule: Q01DX009 (ip), vehicle: Klucel (hydroxypropylcellulose) (HPC)) is 94 % of control; the T/C (dose: 60.0 mg/kg/injection, schedule: Q01DX009 (ip), vehicle: Klucel (hydroxypropylcellulose) (HPC)) is 86 % of control; the T/C (dose: 120.0 mg/kg/injection, schedule: Q01DX009 (ip), vehicle: Klucel (hydroxypropylcellulose) (HPC)) is 92 % of control.
With `COc1ccc(C(NC(N)=O)c2cc3c(cc2OC(C)=O)OCO3)cc1` (stereo not drawn), the T/C is 98 % of control under setting [12], 92 % of control under setting [13] and 93 % of control under setting [14].
For `O=c1c2ccccc2[nH]c2c1[nH]c1ccccc12`, the T/C reads like this: (dose: 50.0 mg/kg/injection, schedule: Q01DX005 (ip), vehicle: Klucel (hydroxypropylcellulose) (HPC)) 89 % of control; (dose: 100.0 mg/kg/injection, schedule: Q01DX005 (ip), vehicle: Klucel (hydroxypropylcellulose) (HPC)) 90 % of control.
Regarding `N#Cc1cccc(CN2CCCNCC2)c1`, the T/C was 94 % of control under setting [7]; 94 % of control under setting [8]; 103 % of control under setting [9]; 109 % of control under setting [10]; 105 % of control under setting [11].
For `COc1ccc2c(c1OC)C[N+]1([O-])CCc3cc4c(cc3C1C2)OCO4` (stereo not drawn), the T/C by setting is: (dose: 0.63 mg/kg/injection, schedule: Q01DX009 (ip), vehicle: distilled water + Tween-80) 91 % of control; (dose: 1.25 mg/kg/injection, schedule: Q01DX009 (ip), vehicle: distilled water + Tween-80) 92 % of control; (dose: 2.5 mg/kg/injection, schedule: Q01DX009 (ip), vehicle: distilled water + Tween-80) 92 % of control; (dose: 5.0 mg/kg/injection, schedule: Q01DX009 (ip), vehicle: distilled water + Tween-80) 90 % of control; (dose: 10.0 mg/kg/injection, schedule: Q01DX009 (ip), vehicle: distilled water + Tween-80) 97 % of control; (dose: 20.0 mg/kg/injection, schedule: Q01DX009 (ip), vehicle: distilled water + Tween-80) 106 % of control.
For `CC(C)(C)C(=O)OCn1cc2c(=O)[nH]cnc2n1`, the T/C was 101 % of control under setting [12], 100 % of control under setting [13] and 104 % of control under setting [14].
In the case of `CC1(C)CC(OC(=O)Oc2c3ccccc3c3ccc4cccc5ccc2c3c54)CC(C)(C)N1O`, the T/C runs as follows: under setting [6], 97 % of control; (dose: 100.0 mg/kg/injection, schedule: Q01DX009 (ip), vehicle: saline with Tween-80) 97 % of control; (dose: 200.0 mg/kg/injection, schedule: Q01DX009 (ip), vehicle: saline with Tween-80) 103 % of control.
As to `Cn1ccnc1Sc1ccnc(Sc2ccc([N+](=O)[O-])cc2[N+](=O)[O-])n1`, the T/C reads like this: under setting [3], 108 % of control; under setting [4], 96 % of control; under setting [5], 87 % of control.
As for `CC(=O)C(CCCn1c(=O)c2c(ncn2C)n(C)c1=O)CCCn1c(=O)c2c(ncn2C)n(C)c1=O`, the T/C was 102 % of control under setting [12], 99 % of control under setting [13] and 104 % of control under setting [14].
In the case of `O=C(O)C(Cc1cnc[nH]1)[N-]C[N-]C(Cc1cnc[nH]1)C(=O)O.[Pd+2]` (stereo not drawn), the T/C (dose: 50.0 mg/kg/injection, schedule: Q01DX005 (ip), vehicle: saline) is 100 % of control; the T/C (dose: 100.0 mg/kg/injection, schedule: Q01DX005 (ip), vehicle: saline) was 97 % of control; the T/C (dose: 200.0 mg/kg/injection, schedule: Q01DX005 (ip), vehicle: saline) is 100 % of control.
`O=C1C(=O)c2ncccc2-c2ncccc21`: the T/C was 113 % of control (dose: 7.5 mg/kg/injection, schedule: Q01DX005 (ip), vehicle: saline with Tween-80) and 95 % of control (dose: 15.0 mg/kg/injection, schedule: Q01DX005 (ip), vehicle: saline with Tween-80).
